Results reported in patent publication US12377069B2, “Compounds, compositions, methods of using, and methods for preparing compounds” (UNIVERSITY OF LOUISVILLE RESEARCH FOUNDATION, INC., priority 2018, dated 2025).

Legend:
C57B6/J mice = experiment: LPS-induced sepsis survival; format: in vivo, mouse; conditions: LPS 20 mg/kg i.p.; for survival of septic mice: compound 20 mg/kg i.p.
Experimental: UAS03 (Ether) attenuates septic mortality. C57B6/J mice were injected with lipopolysaccharide intra-peritoneally at a septic dose of 20 mg/kg. The treated animals received either Urolithin-A or UAS03 (Ether) at 20 mg/kg intraperitoneal injection.
Preventive and therapeutic effect of UAS03 (Ether) in septic animals. Animals were injected with LPS intraperitoneally at 20 mg/kg dose to induce sepsis. For Ether+LPS group animals were given UAS03 (20 mg/kg; intraperitoneal) 1 hour prior LPS injection. LPS+Ether group received UAS03 1 hour post LPS injection.

C57BL/6 mice = experiment: In vivo Miles assay (VEGF); conditions: 20 mg/kg oral gavage; VEGF 2.5 ng/mouse
Experimental: Acute intoxication of alcohol can induce microvasculature leakage as well as direct exposure to endothelium leads to disruption of endothelial integrity. […] In addition, increased endothelial permeability enhances the extravasation of immune cells into liver leading to increased inflammation. To examine the effect of UroA/UAS03 on endothelial cell permeability, we utilized in vivo Evans Blue permeability assay. Briefly, C57BL/6 mice (n=4/group) were given LPS (100 μg) i.p. followed by treatment with UAS03 or UroA (20 mg/kg) after 1 h and 18 h. Evans blue (i.v.) was given to mice (24 h post LPS treatment) and 30 min later mice were euthanized and the Evans Blue from lung and liver tissues was extracted using formamide. The levels of Evans Blue was determined by OD at 620 nm. […] To evaluate direct impact of UroA or UAS03 on endothelial barrier function, we used in vivo Miles assay to test blood vessel permeability. We used vascular endothelial growth factor (VEGF) as vasodilator. In this assay, C57BL/6 mice (n=3 per group) were given vehicle or UroA or UAS03 (20 mg/kg; oral gavage). After 3 h, Evans blue (100 μL of 1% solution) was administered i.v. followed by intra-dermal administration of VEGF (2.5 ng/mouse) or PBS (control). […]

5FUR HCT116 cells = experiment: EMT markers in colon cancer cells (Western blot); format: cell-based; conditions: for EMT markers ZO-1, E-Cadherin, Snail, β-catenin: 5FUR HCT116, 72 h, in the presence of 5FU
Experimental: FIG. 41: Western blot analysis of EMT markers in 5FUR HCT116 cells in treated (72 h) with 5FU in the presence or absence of UroA/UAS03.
UroA/UAS03 treatment reduce epithelial-mesenchymal transitions (EMT) signature in 5FU resistant (5FU R) colon cancer cells: We examined EMT markers in 5FU sensitive (parent) and 5FU resistant (5FUR) HCT116 colon cancer cell lines. […] The reciprocal expression of these molecules are hallmarks of EMT signature. Next, we examined whether treatment with UroA/UAS03 can reverse these patterns in 5FUR cells. […] One of the mechanisms by which cancer cells acquire chemoresistant phenotype is by the induction of drug transporters such as Multidrug resistance-associated protein 2 (MRP2), ATP-binding cassette (ABC) drug efflux transporter proteins, BCRP and P-gycoprotein (P-gp).

HT29 cells = experiment: RNA-Seq analysis of HT29 cells; format: cell-based, human; conditions: 50 μM, 24 h
Experimental: RNA sequencing: Total RNA was isolated from HT29 cells treated with vehicle and UroA (50 μM) (n=3) for 24 h and RNA was isolated using Trizol based lysis followed by Qiagen RNeasy kits. The isolated RNA was checked for integrity (RIN>9.5) using the Agilent Bioanalyzer 2100 system (Agilent Technologies, Santa Clara, CA) and quantified using a Qubit fluorometric assay (Thermo Fisher Scientific, Waltham, MA). Poly-A enriched […] libraries were prepared following Illumina's TruSeq Stranded mRNA LT library preparation protocol (Illumina Inc., San Diego, CA) using 1 μg of total RNA. All 15 samples were individually barcoded and quantitated with the KAPA Library Quantitation Kit for Illumina Platforms (Kapa Biosystems, Wilmington, MA) in conjunction with an Agilent Bioanalyzer DNA 1000 analysis (Agilent Technologies, Santa Clara, CA) for fragment size determination. The average fragment size was approximately 300 bp. […] of the pooled libraries with 1% PhiX spike-in was loaded on one NextSeq 500/550 75 cycle High Output Kit v2 sequencing flow cell and sequenced on the Illumina NextSeq 500 sequencer. The quality of the 1×75 bp sequences was checked using […] Quality Control Tool for High Throughput Sequence Data”). Trimming was not necessary with the median quality score above 30 (error probability=0.001 or 1 base call in 1,000 is predicted to be incorrect) across the entire length of the read and the lower quantile above a score of 20 (error probability=0.01) at the end of the read where there is an expected decrease in quality. The raw reads for each sample were directly aligned to the Homo sapiens (hg38) reference genome assembly (hg38.fa) using tophat2 (version 2.0.13) (KIM et al. (2013) “TopHat2: accurate alignment of transcriptomes in the presence of insertions, deletions and gene fusions” Genome biology, Vol. 14, Article […]), generating alignment files in bam format. Optional parameters include-no-coverage-search and -library-type fr-firststrand. […] On average, 26 million reads were aligned per sample with a mean alignment rate of 97 percent. […]

T84 cells = experiment: EtOH-induced internalization of junction proteins; format: cell-based; conditions: 50 μM 1 h, then EtOH 40 mM 6 h
Excerpt: The membrane and cytosolic fractions were isolated and evaluated for tight junction (TJ) and adherins junction (AJ) and desmosomes. […] (i.e., EtOH treatment alone has more cytosolic protein and EtOH+UroA has more membrane fraction) (FIG. 20).

Oc1ccc2c(c1)COc1cc(O)ccc1-2 [UAS03, 6H-benzo[c]chromene-3,8-diol]
survival, pretreated (1 hour prior LPS) (C57B6/J mice; 20 mg/kg i.p.): 70%
survival, therapeutic group (1 hour post LPS) (C57B6/J mice; 20 mg/kg i.p.): 100%
survival of septic mice (C57B6/J mice): 90%
endothelial barrier leakage induced by VEGF (C57BL/6 mice): protected from endothelial barrier leakage
EMT markers ZO-1, E-Cadherin, Snail, β-catenin (5FUR HCT116 cells): upregulated ZO-1, E-Cadherin, and down regulated Snail and β-catenin

O=c1oc2cc(O)ccc2c2ccc(O)cc12 [UroA, 3,8-dihydroxy-6H-dibenzo[b,d]pyran-6-one]
Cyp1A1 expression (RNA-Seq) (HT29 cells): among the top 3 UroA upregulated genes
claudin 4 (Cldn4) expression (RNA-Seq) (HT29 cells): upregulated
heme oxygenase 1 (HMOX1 or HO1) expression (RNA-Seq) (HT29 cells): increased the expression
EtOH-induced internalization of membrane junction proteins to cytosol (T84 cells): protected from EtOH-induced internalization
survival of septic mice (C57B6/J mice): 20%
endothelial barrier leakage induced by VEGF (C57BL/6 mice): protected from endothelial barrier leakage
EMT markers ZO-1, E-Cadherin, Snail, β-catenin (5FUR HCT116 cells): upregulated ZO-1, E-Cadherin, and down regulated Snail and β-catenin
expression of E-cadherin (5FUR HCT116 cells; colon cancer cell lines): enhanced the expression of E-cadherin
